This note sets out measurements from patent US20150157584A1, “INHIBITORS OF HIPPO-YAP SIGNALING PATHWAY” (The Regents of the University of California, priority 2012, published 2015).

Read-outs that look alike come from different tables or passages of the source. Residues, ends and D or L forms follow the SMILES beside them. *: point of attachment. Cbz = O=C(OCc1ccccc1)*

Experiment [1] deals with YAP/TAZ. The experiment is described as follows: immunoblotting / phos-tag gels of YAP/TAZ phosphorylation in cultured cell lines. The format is cell-based, human. As to conditions: for YAP phosphorylation by PDE inhibitors: ibudilast 100 μM, IBMX 100 μM, rolipram 50 μM, theophylline 1 mM, 1 hr; for YAP dephosphorylation, different doses: different doses of LPA, S1P, LPC or PA for 1 h; for YAP/TAZ activation by growth factors: EGF 50 ng/ml, PDGF 50 ng/ml, insulin 200 nM, FGF 10 ng/ml; for YAP/TAZ phosphorylation by BSA preparations: serum-starved HEK293A, 1 or 10 mg/ml BSA. The method, then:
Immunoblotting was performed using standard protocol. […] The phos-tag reagents were purchased from Wako Chemicals, and gels containing phos-tag were prepared according to manufacture's instructions. YAP proteins can be separated into multiple bands in the presence of phos-tag depending on differential phosphorylation levels, with phosphorylated proteins run migrate slower.
(§1) Immunoblotting was performed using standard protocol. Antibodies for pYAP (S127), YAP, TAZ (V386), pCREB, CREB, pMLC2 (S19), pMLC2 (T18/S19), MST1, MST2, and Lats1 were from Cell Signaling Technology. Lats2 antibody was from Bethyl laboratories. HA-HRP, GFP, and MLC2 antibodies were from Santa Cruz biotechnology. Tubulin, HSP90 and Flag-HRP were purchased from Sigma Aldrich. PKA antibody was obtained from BD biosciences. GAPDH antibody was a gift from Dr. Yan Luo. Yki antibody was a gift from Dr. Kenneth Irvine. The phos-tag reagents were purchased from Wako Chemicals, and gels containing phos-tag and MnC12 were prepared according to manufacturer's instructions. YAP proteins can be separated into multiple bands on phos-tag gels, with the phosphorylated form of YAP proteins migrating at a slower speed.

For experiment [2], the system named is YAP/TAZ. The experiment is described as follows: immunoblotting of YAP/TAZ phosphorylation in mouse cells (primary hepatocytes, 3T3-L1). Format: cell-based. The method, then: (§2) Immunoblotting was performed using standard protocol. Antibodies for pYAP (S127), pYAP(S381/384), pMST1/2, TAZ, pERK, ERK1/2, Lats1, MST1, pAKT (S473), pS6K, S6K were from Cell Signaling, antibodies for YAP (H-125), CTGF, Cyr61, Gq/11, G13 and 14-3-3θ were from Santa Cruz, TEAD1 antibody was from BD biosciences, pTAZ (S89) antibody was in-house raised, GAPDH antibody was a gift from Dr. Yan Luo. The phos-tag reagents were purchased from Wako Chemicals, and gels containing phos-tag were prepared according to manufacture's instructions. YAP proteins can be separated into multiple bands in the presence of phos-tag depending on differential phosphorylation levels, with phosphorylated proteins run migrate slower.
as §1
Background: A western blot detects proteins with antibodies after separation by electrophoresis.

The test system of experiment [3] is 3T3-L1 cells. The experiment is described as follows: adipogenesis of 3T3-L1 cells (oil red staining). The format is cell-based, mouse. As to conditions: 3T3-L1 with insulin, dexamethasone, troglitazone; IBMX 250 μM; KT5720 5 μM. The method, then:
Adipogenesis. Murine 3T3-L1 cells were maintained in DMEM medium containing 10% calf serum (Hyclone). To initiate adipocyte differentiation, confluent 3T3-L1 cells switched into FBS containing DMEM medium; in addition, insulin, dexamethasone, troglitazone (Tro) were added; in selected samples, IBMX (250 μM) or forskolin (100 μM) were used to increase cAMP and PKA activity. For experiments using KT5720, 3T3-L1 cells were pre-treated with KT5720 (5 μM) overnight in advance and fresh KT5720 was added when adipogenesis was initiated. Two days later, medium was changed into DMEM containing 10% FBS and insulin. And after another two days, cells were incubated in DMEM with FBS. Cells were typically harvested on day 6 depending on the formation and maturation of lipid droplets. Cells were then subjected to RNA extraction or oil red (Sigma Aldrich) staining according to manufacturer's instructions.

Experiment [4] concerns Lats1. The experiment is described as follows: Lats1 immunoprecipitation kinase assay with GST-YAP substrate. The format is cell-based, human. The following applies: HEK293A; Ki16425 10 μM 30 min; C3 2 μg/ml 4 h.
Method: Lats1 or HA-Lats2 kinase assays were performed similarly but using GST-YAP as substrates in the absence of [γ-^32P] ATP. The phosphorylation of GST-YAP at S127 was determined by immunoblotting using pYAP antibody.
Cells were lysed using mild lysis buffer (50 mM HEPES at pH 7.5, 150 mM NaCl, 1 mM EDTA, 1% NP-40, 10 mM pyrophosphate, 10 mM glycerophosphate, 50 mM NaF, 1.5 mM Na3VO4, protease inhibitor cocktail [Roche], 1 mM PMSF). Cell lysates were cleared and used for immunoprecipitation. Lats1 antibody (Cell Signaling Technology) was mixed with cell lysates for 1 hr at 4° C., and then protein A agarose beads were added in for 1 hr. After four washes with lysis buffer, beads were washed once with wash buffer (40 mM HEPES, 200 mM NaCl) and once with kinase assay buffer (30 mM HEPES, 50 mM potassium acetate, 5 mM MgCl2). The immunoprecipitated Lats1 was then subjected to a kinase assay in the presence of 500 μM cold ATP, 10 μCi [γ-32P] ATP, and 1 μg of GST-YAP expressed and purified from Escherichia coli as substrate. The reaction mixtures were incubated for 30 min at 30° C., terminated with SDS sample buffer, and subjected to SDS-PAGE and immunoblotting.
The test system of experiment [5] is YAP. Format: cell-based, human.
The subject of experiment [6] is CTGF. The experiment is described as follows: expression of YAP/TAZ target gene CTGF. Format: cell-based, human. As to conditions: HEK293A. The method, then:
as §2
Following various treatments, cells were washed with cold phosphate-buffered saline and subjected to RNA extraction using an RNeasy Plus mini kit (Qiagen). […] Complementary DNA was then diluted and used for quantification (with β-actin gene as a control) by real-time PCR, which was performed using KAPA SYBR FAST qPCR master mix (Kapa Biosystems) and the 7300 real-time PCR system (Applied Biosystems). […]
RNA extraction, reverse transcription and real-time PCR. […] After dilution, cDNA levels were quantified by real-time PCR using KAPA SYBR FAST qPCR master mix (Kapa Biosystems) and the 7300 real-time PCR system (Applied Biosystems). […]

Setting [7] is: 3T3-L1, 10 μM forskolin, 100 μM IBMX or 5 μM KT5720, 1 hr.
Setting [8] is: HEK293A pre-treated 30 min (1 μM Torin1, 10 μM U0126, 10 μM SB253580, 10 nM wortmannin), then 10% FBS 1 h.

Regarding `Oc1cc2c(cc1O)[C@H]1c3ccccc3CN[C@@H]1CC2` (racemic) [Dihydrexidine], the YAP phosphorylation result in experiment [1] (U2OS cells, 10 μM, 1 h) is on record as “strong increase”. Turning to `CO[C@@H]1[C@@H]2OP(=O)(O)OC[C@H]2O[C@H]1n1c(Sc2ccc(Cl)cc2)nc2c(N)ncnc21` [8-CPT-2′-O-Me-cAMP], the “YAP phosphorylation by PKA or Epac selective activators” value in experiment [1] (HEK293A, 1 h) is recorded as “less dramatic”.

As for `CC(C)Cn1c(=O)n(C)c(=O)c2[nH]cnc21` [IBMX], the “YAP phosphorylation by PDE inhibitors” value in experiment [1] (MDA-MB-231) is listed as “induced YAP phosphorylation”. In experiment [2] (setting [7]), the TAZ protein level result is on record as “decreased” and the YAP phosphorylation result was “induced”. The adipogenesis result in experiment [3] is “induced”. As for `CCCCCCOC(=O)[C@]1(O)C[C@@H]2O[C@@]1(C)n1c3ccccc3c3c4c(c5c6ccccc6n2c5c31)C(=O)NC4` [KT5720], the YAP phosphorylation entry in experiment [1] (MDA-MB-231, KT5720 5 μM) is listed as “decreased”. In addition, in experiment [1] (MDA-MB-231, KT5720 5 μM 30 min, then 10 μM epinephrine or forskolin 1 hr), the “effect on forskolin- and epinephrine-induced YAP phosphorylation” value is given as “largely blocked”. In addition, in experiment [2] (setting [7]), the TAZ protein level result was “increased” and the YAP phosphorylation entry is recorded as “repressed”. The “effect on glucagon-induced YAP phosphorylation” value in experiment [2] (primary hepatocytes isolated from mice, KT5720) is “abolished”. For the same compound, the adipogenesis result in experiment [3] is given as “inhibited”. With `Cc1noc(-c2ccc(CSCCC(=O)O)cc2)c1NC(=O)OC(C)c1ccccc1Cl` (stereo not drawn) [Ki16425], in experiment [1] (HEK293A, Ki16425 10 μM, 30 min), the “effect on LPA-induced dephosphorylation of YAP/TAZ” value is “blocked” and the “effect on S1P-induced dephosphorylation of YAP/TAZ” value is recorded as “not”. Also, the “effect on the ability of serum to repress YAP/TAZ phosphorylation” value in experiment [1] (HEK293A, Ki16425 10 μM, particularly at 0.2% serum) was “partially inhibited”. Further, the “effect on Lats1 inhibition by LPA, S1P, and serum” value in experiment [4] is recorded as “effectively blocked”. Regarding `CC(C)C[C@@H](C=O)NC(=O)[C@H](CC(C)C)NC(=O)[C@H](CC(C)C)NC(=O)OCc1ccccc1` [MG132] (Cbz-Leu-Leu-Leu-aldehyde), the “YAP protein levels under various doses of C108 with proteasome inhibitor” value in experiment [5] was “mostly maintained”.

In the case of `CCCCCCCCCCCCC/C=C/[C@@H](O)[C@@H](N)COP(=O)(O)O` [S1P, sphingosine 1-phosphate], the “YAP/TAZ dephosphorylation, time course” value in experiment [1] (HEK293A, 1 μM for indicated times) is reported as “potently induced YAP/TAZ dephosphorylation”. In experiment [1] (HEK293A), the “YAP dephosphorylation, different doses” value was “potently induced”. Also, in experiment [6], the “expression of CTGF” value was “induced”.

For `C[S+]([O-])c1ccc(-c2nc(-c3ccc(F)cc3)c(-c3ccncc3)[nH]2)cc1` (stereo not drawn) [SB253580], the “effect on the ability of FBS to dephosphorylate YAP/TAZ” value (“effect … to dephosphorylate YAP/TAZ” below) in experiment [1] (setting [8]) is recorded as “no effect”. Turning to `N#CC(=C(/N)Sc1ccccc1N)/C(C#N)=C(\N)Sc1ccccc1N` [U0126], the “effect … to dephosphorylate YAP/TAZ” value in experiment [1] was “no effect”. As for `O=C(Nc1ncnc2c1ncn2[C@@H]1O[C@@H]2COP(=O)(O)O[C@H]2[C@H]1O)c1ccccc1` [b-Bnz-cAMP], in experiment [1] (HEK293A, 1 h), the “YAP phosphorylation by PKA or Epac selective activators” value is listed as “dramatically increased”. On to `C/C1=C/C(=O)O[C@@H]2C[C@@H](CC[C@H](C)/C=C\CC1)O[C@@](O)([C@@H]1CSC(=O)N1)C2` [latrunculin B], for which the “effect on the effects of LPA or S1P on YAP” value in experiment [1] (HEK293A 1 μg/ml LatB 30 min, MCF10A localization) is listed as “blocked”. Turning to `COc1ccc(C2CNC(=O)C2)cc1OC1CCCC1` (stereo not drawn) [rolipram], the “YAP phosphorylation by PDE inhibitors” value in experiment [1] (MDA-MB-231) is reported as “induced YAP phosphorylation”. The same measure, in the same setting: for `Cn1c(=O)c2[nH]cnc2n(C)c1=O` [theophylline] the value was “induced YAP phosphorylation”. As to `CCC(=O)N1CCN(c2ccc(-n3c(=O)ccc4cnc5ccc(-c6cnc7ccccc7c6)cc5c43)cc2C(F)(F)F)CC1` [torin], the “effect … to dephosphorylate YAP/TAZ” value in experiment [1] (setting [8]) is “no effect”.

As to `COC[C@H]1OC(=O)c2coc3c2[C@@]1(C)C1=C(C3=O)[C@@H]2CCC(=O)[C@@]2(C)C[C@H]1OC(C)=O` [wortmannin], the “effect … to dephosphorylate YAP/TAZ” value in experiment [1] (setting [8]) is “no effect”. In the case of EGF: growth factor tested, the “YAP/TAZ activation by growth factors” value in experiment [1] (HEK293A) is “not involved”.

For the compound “Fraction V BSA: BSA prepared by ethanol precipitation”, in experiment [1] (1 h), the “YAP/TAZ phosphorylation by BSA preparations” value is on record as “no activity”.

Consider PDGF, for which the “YAP/TAZ activation by growth factors” value in experiment [1] (HEK293A) was “not involved”.

Turning to “fatty acid-free BSA: fatty acid-free BSA preparation”, the “YAP/TAZ phosphorylation by BSA preparations” value in experiment [1] (1 h) is listed as “no activity”.

Turning to glucagon: ligand known to activate PKA, the YAP phosphorylation entry was “increased” in experiment [2] (primary hepatocytes isolated from mice, glucagon) and “increased” in experiment [2] (primary mouse hepatocytes, 2 μM glucagon, 1 h). As to insulin: growth factor tested, the “YAP/TAZ activation by growth factors” value in experiment [1] (HEK293A) is listed as “not involved”. Take phosphatidic acid [PA]: in experiment [1] (HEK293A, 100 μM lipid), the “dephosphorylation of YAP/TAZ by phospholipids” value is recorded as “strongly induced dephosphorylation”. Further, the “concentration needed to induce YAP dephosphorylation” value in experiment [1] (HEK293A, 1 h) was found to be 100 µM. Also, the “YAP dephosphorylation, different doses” value in experiment [1] (HEK293A) was “much higher concentrations”. The “potency relative to LPA (times less potent)” value in experiment [1] (YAP dephosphorylation, HEK293A) is given as 1,000 times.
